Assay results as given in paper PMC9554468, “Assessing potency and binding kinetics of soluble adenylyl cyclase (sAC) inhibitors to maximize therapeutic potential” (Frontiers in Physiology, 2022).
Values joined by “and” are separate entries in the source; they are usually repeats but may differ in a detail not shown here. Identical values can stand only once.

Biological target: T1, sAC in 4-4 cells (HEK293 cells that stably overexpress sACt) (Rattus norvegicus, UniProt Q9Z286)
T1 construct: HEK293 cells that stably overexpress sACt; expressed in transfected cells
T1 sequence (Q9Z286 1-469 limits assumed): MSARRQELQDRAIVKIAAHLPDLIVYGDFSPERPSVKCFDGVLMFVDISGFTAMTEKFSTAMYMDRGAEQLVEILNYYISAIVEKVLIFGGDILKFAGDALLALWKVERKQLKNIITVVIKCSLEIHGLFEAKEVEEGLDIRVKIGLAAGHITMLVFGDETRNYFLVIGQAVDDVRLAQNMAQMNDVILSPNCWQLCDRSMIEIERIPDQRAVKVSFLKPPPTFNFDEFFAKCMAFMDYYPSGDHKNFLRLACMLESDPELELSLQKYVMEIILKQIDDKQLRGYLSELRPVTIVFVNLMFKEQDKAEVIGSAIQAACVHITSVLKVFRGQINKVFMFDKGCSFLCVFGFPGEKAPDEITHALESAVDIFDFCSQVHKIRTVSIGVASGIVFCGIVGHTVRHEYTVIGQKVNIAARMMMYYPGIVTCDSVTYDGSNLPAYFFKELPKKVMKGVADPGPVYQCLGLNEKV
Test: cellular adenylyl cyclase activity assay (cAMP accumulation) in sAC overexpressing 4-4 cells
Format: cell-based, human
Conditions: 10 min preincubation, 500 μM IBMX 5 min, 37°C
Description: For the assay, 1 × 10^5 4-4 cells were seeded in each well of a 24-well plate and incubated for 24 h in DMEM+10% FBS media at 37°C/5% CO2. One hour before the assay the media was aspirated and replaced with 300 μL fresh media. Cells were preincubated with sAC inhibitor at the indicated concentrations or vehicle (0.7% DMSO) for 10 min at 37°C. Intracellular cAMP accumulation was initiated by addition of 500 μM IBMX (Sigma-Aldrich), and cAMP was allowed to accumulate for 5-min. Intracellular cAMP was quantitated using the Direct cAMP Elisa kit (Enzo Life Sciences) following manufacturer’s instructions. GraphPad Prism (www.graphpad.com, version 9.3.1) was used for curve fitting of the concentration-response data and determination of IC50 values.
In addition to how tightly an inhibitor binds its target, efficacy against an intracellular enzyme target is also determined by factors that are present only in the context of cells, such as membrane permeability, non-specific protein binding and compound stability in media and inside cells.

Row | IC50 | Compound
1 | 19.4 nM and 19 nM | COC(=O)[C@@H]1COCCN1CCOc1ccccc1Cc1cn(C(F)F)nc1-c1cc(Cl)nc(N)n1 [TDI-11893]
2 | 15.7 nM and 16 nM | Cn1cc(Cc2ccccc2OCCN2CCOCC2)c(-c2cc(Cl)nc(N)n2)n1 [TDI-11155]
3 | 2.3 nM | COC(=O)[C@H]1COCCN1CCOc1ccccc1Cc1cn(C(F)F)nc1-c1cc(Cl)nc(N)n1 [TDI-11891]
